Legend:
[1] = molecular target: T1, Glycylpeptide N-tetradecanoyltransferase 1 (Homo sapiens, UniProt P30419); experiment: Enzyme Inhibition Assay: Measurements were performed using a modification of the scintillation proximity assay platform described previously by Georgopapadakou, N. H. et al. (22nd International Congress on Chemotherapy, 2001, Abstract P16.001). Compounds were solubilised in DMSO at a top concentration of 10 mM and serially diluted in half log steps to achieve a range of final assay concentrations …
T1 sequence (P30419 whole entry): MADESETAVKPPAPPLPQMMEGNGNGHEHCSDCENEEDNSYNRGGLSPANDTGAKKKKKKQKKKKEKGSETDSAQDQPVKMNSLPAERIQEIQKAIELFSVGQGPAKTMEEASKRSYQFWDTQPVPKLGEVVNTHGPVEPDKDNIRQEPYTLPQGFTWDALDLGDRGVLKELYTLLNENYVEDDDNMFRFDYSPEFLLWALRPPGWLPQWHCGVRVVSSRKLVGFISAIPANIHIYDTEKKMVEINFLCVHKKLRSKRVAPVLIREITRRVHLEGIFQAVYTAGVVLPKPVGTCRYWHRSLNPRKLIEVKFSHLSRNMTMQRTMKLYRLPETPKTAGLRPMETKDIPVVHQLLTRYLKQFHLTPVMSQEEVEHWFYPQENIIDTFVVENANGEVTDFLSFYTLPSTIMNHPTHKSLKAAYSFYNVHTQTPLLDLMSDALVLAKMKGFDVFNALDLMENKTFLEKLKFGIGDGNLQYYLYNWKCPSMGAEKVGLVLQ

[2] = molecular target: T2, Glycylpeptide N-tetradecanoyltransferase (Leishmania major, UniProt Q4Q5S8); experiment: as above
T2 sequence (Q4Q5S8 whole entry): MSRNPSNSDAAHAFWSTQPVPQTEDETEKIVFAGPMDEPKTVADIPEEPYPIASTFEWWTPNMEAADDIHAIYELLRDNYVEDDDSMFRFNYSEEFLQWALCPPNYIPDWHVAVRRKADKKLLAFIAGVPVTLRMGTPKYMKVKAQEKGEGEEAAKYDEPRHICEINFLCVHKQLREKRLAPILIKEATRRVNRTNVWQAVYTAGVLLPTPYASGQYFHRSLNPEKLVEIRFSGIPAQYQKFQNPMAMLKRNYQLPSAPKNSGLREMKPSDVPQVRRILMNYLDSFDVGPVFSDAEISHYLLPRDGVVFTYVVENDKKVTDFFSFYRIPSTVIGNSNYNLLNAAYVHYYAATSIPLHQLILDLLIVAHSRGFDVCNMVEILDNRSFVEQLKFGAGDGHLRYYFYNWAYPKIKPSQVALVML

Row | SMILES | IC50 [1] [nM] | IC50 [2] [nM]
1 | Cc1nn(C)c(C)c1N(C(F)F)S(=O)(=O)c1c(Cl)cc(CCCOC2CC(C)(C)N(C)C(C)(C)C2)cc1Cl | > 1000 | 40
2 | Cc1nn(C)c(C)c1N(C(F)F)[S+](=O)([O-])c1c(Cl)cc(Br)cc1Cl | > 1000 | > 1000
